Ends that are not written are not given here.
What was measured:
HUVEC = experiment: Lysosomal transport of peptide-coated carriers in HUVEC; type: cell-based, human; conditions: for Binding, internalization and lysosomal transport of carriers: 37° C., co-localization with dextran-labeled lysosomes, carriers coated with the peptide
Method: (§1) (A) The peptide γ3 was absorbed on the surface of 100 nm FITC-labeled polystyrene carriers and the resulting products were incubated for 15 min on nitrocellulose-immobilized albumin vs human or mouse ICAM-1 chimeras containing ICAM-1-Ig domains 1 and 2 fused to human Fc sequence. The membranes were washed and analyzed by fluorescence microscopy to quantify the number of carriers bound per area. Data are expressed relative to non-specific binding of γ3 carriers to albumin controls (dotted line). A comparison to binding of anti-ICAM carriers is provided (dashed line). (B) Binding of FITC-labeled polystyrene carriers coated by absorption with the peptide γ3 and recombinant acid sphingomyelinase (ASM, a therapeutic enzyme) to activated HUVEC (bars) vs ICAM-1-negative 293 cells (dotted line) was quantified by fluorescence microscopy after 1 h incubation at 37° C., in the absence or presence of excess γ3, anti-ICAM, γ3 scramble peptide, or mannose 6 phosphate (M6P). Data is shown relative to HUVEC binding of γ3/ASM carriers (134±11 particles/cell). (C) HUVEC lysosomes were labeled for 2 h with Texas-red dextran at 37° C. Cells were then incubated for 30 min at 37° C. with FITC-labeled γ3/ASM carriers, non-bound carriers were washed, and incubation was continued up to 1, 2, or 3 h. Co-localization of FITC carriers with Texas-red dextran-lysosomes was quantified by fluorescence microscopy. (D) Comparison of lysosomal transport of 100 nm FITC-labeled polystyrene carriers coated with either ICAM-1-targeting peptide γ3 vs its derivatives 2γ3 and 3γ3. (E) Activated HUVEC were incubated for 30 min at 37° C. in the presence of FITC-labeled 2γ3 polystyrene carriers after 15 min pre-treatment with 3 mM amiloride to block ICAM-1-mediated endocytosis, or 0.1 μM PMA to activate PKC and promote ICAM-1-mediated endocytosis. Co-localization of FITC 2γ3 carriers with Texas red dextran-labeled lysosomes was assessed by microscopy 3 h post-internalization. Mean±SEM; n=2 assays. **p<0.005, ***p<0.001, by student's t test.

mouse endothelial cells = experiment: Endocytosis of peptide phages by mouse endothelial cells; type: cell-based; conditions: for Internalization of phage viruses by endothelial cells: phages expressing 5 copies of the peptide, 37° C., 1 h
Source text: (§2) (A) ELISA measurement of the binding of 7-mer peptide expressing phage library to immobilized recombinant ICAM-1 (consisting of the two most membrane-distal Ig domains—1 and 2—of mouse ICAM-1 fused to human Fc or hFc), versus their binding to control hFc. (B) Relative specificity and (C) relative affinity of ICAM-1-targeting peptide phages, determined by ELISA from the experiment in (A). (D) Relative binding of phages expressing 7-mer peptides to native ICAM-1 expressed on the surface of HV5 mouse endothelial cells, either control or activated with TNFalpha to mimic a disease phenotype. Binding was determined by microscopy using a fluorescently-labeled antibody to the phage capsid. The line in the graph indicates the level of binding of A1 phage to 293 cells, which are voided of ICAM-1-expression. (E, F) Endocytosis (1 h, 37° C.) of phages expressing 7-mer peptides by control mouse endothelial cells (E) or mouse endothelial cells incubated in the presence of 3 mM amiloride (F) was estimated by microscopy after staining surface-located phages with a Texas red-labeled antibody to the viral capsid, following by cell permeabilization and staining of all (surface and internalized) phages using a FITC-labeled antibody to the viral capsid. (G) Binding of FITC-labeled anti-ICAM polystyrene nanocarriers to human endothelial cells was evaluated by fluorescence microscopy after incubation with cells in the absence (100% level) or presence of anti-ICAM antibody, ICAM-1-targeting synthetic peptides, or peptides with their scramble sequence (e.g., A1sc).

Caco-2 cells = experiment: Endocytosis of anti-ICAM carriers by Caco-2 cells; type: cell-based, human; conditions: TNF-α-treated Caco-2, 1 h, 37° C.
Method: Furthermore the ability of anti-ICAM carriers to be endocytosed by Caco-2 cells was examined. FITC-labeled anti-ICAM carriers were first incubated with cells for 30 min to allow binding, then non-bound carriers were washed and cells were incubated for varying times to allow carrier uptake. After cell fixation, surface-bound carriers were stained with Texas Red secondary antibody. […] Data are shown as means±S.E.M. (n≧20). […] Internalization was highly efficient: approximately 90% of the carriers bound to cells were internalized, which represents ˜60 carriers per cell.
The mechanism of uptake for Caco-2 cells treated with amiloride, a known inhibitor of CAM-mediated endocytosis (Muro et al., 2003), was examined. TNF-α-treated Caco-2 cells were incubated with FITC-labeled anti-ICAM carriers in the presence or absence of amiloride (1 h, 37° C.), and surface-bound carriers were stained with TxR goat anti-mouse. […] Upper panels of FIG. 14A show total carriers associated to cells, whereas lower panels show the fraction of surface-bound, non-internalized carriers. (Magnification bar=10 μm.) The fluorescence microscopy images were analyzed for the ratio of internalized carriers to surface-bound carriers, expressed as % internalization and normalized to the control. (FIG. 14B; Data are shown as means±S.E.M. (n≧20). *, p<0.001 by Student's t test.)

Caco-2 monolayers = experiment: Transport of 125I-labelled carriers across Caco-2 monolayers on permeable inserts; type: in vitro ADME, human
[1] = target: T1, native ICAM-1 expressed by activated HUVEC (Homo sapiens, UniProt P05362); experiment: Binding of γ3/ASM carriers to activated HUVEC, with or without excess competitor; type: cell-based; conditions: 1 h, 37° C.
T1 construct: endogenous in cells
Method: as §1, with “Cells were then incubated for 30 min at 37° C. with FITC-labeled γ3/ASM carriers, non-bound carriers were washed, and incubation was continued up to 1, 2, or 3 h.” left out, “(D) Comparison of lysosomal transport of 100 nm FITC-labeled polystyrene carriers coated with either ICAM-1-targeting peptide γ3 vs its derivatives 2γ3 and 3γ3. (E) Activated HUVEC were incubated for 30 min at 37° C. in the presence of FITC-labeled 2γ3 polystyrene carriers after 15 min pre-treatment with 3 mM amiloride to block ICAM-1-mediated endocytosis, or 0.1 μM PMA to activate PKC and promote ICAM-1-mediated endocytosis.” left out, “Mean±SEM; n=2 assays. **p<0.005, ***p<0.001, by student's t test.” left out

[2] = target: T2, ICAM-1 on human endothelial cells (Homo sapiens, UniProt P05362); experiment: Competition of binding of anti-ICAM nanocarriers to human endothelial cells by synthetic peptides; type: cell-based
T2 construct: endogenous in cells
Source text: as §2

ICAM-1 on HUVEC = experiment: Leukocyte transmigration across TNF-activated HUVEC monolayer in transwell; type: cell-based, human; conditions: compared to albumin, scrambled peptide and LB2 controls
Method: Human endothelial cells (human umbilical vein endothelial cells (HUVECs)) were grown until formation of a continuous confluent monolayer in a transwell filter located between upper and lower chambers. The cells were then treated with tumor necrosis factor alpha to mimic inflammatory activation of endothelial cells and SDF1a was added to the lower chamber to generate a gradient to attract white blood cells, as during inflammation. Lymphocytes isolated from human peripheral blood were activated with interleukin 2 and added to the upper chamber above endothelial cells in the absence (control) or presence of ICAM-1-targeting peptides A1, B7, B8, B9, B10, or D6. Albumin or a peptide of scrambled sequence were used as negative controls which should not block inflammatory transmigration of leukocytes across endothelial cells. The anti-ICAM antibody LB2, which is known to block leukocyte adhesion to ICAM-1, was used as a positive control which should block such transmigration.
Leukocytes which transmigrated to the lower chamber below endothelial cells were counted to assess their transmigration. FIG. 9 provides a graph of the resulting leukocyte transmigration as a percentage of the control. The peptides annotated with an asterisk in FIG. 9 indicate that the peptide was effective in statistically significant blockage of leukocyte transmigration across endothelial cells.

[3] = target: T3, ICAM-1 in the vascular endothelium (Mus musculus, UniProt P13597); experiment: Lodging of fibrin microemboli in the vasculature of mice; type: in vivo
T3 construct: from tissue
Method: C57Bl/6 mice were first injected intravenously with γ3 to block ICAM-1 in the vascular endothelium in organs. Alternatively, injections of saline or anti-ICAM were used as controls. Fifteen minutes later the mice were injected with fibrin clots (microemboli around 3-5 micrometer) generated in the lab by established procedures.
Following microemboli administration, the microemboli amounts were measured in a gamma counter and calculated as percent of injected dose in circulation or localization ratio (the percent injected dose/gram in an organ divided by percent injected dose/gram in blood). FIG. 10(A) is a graphical illustration of the amount of microemboli in circulation in blood, as evaluated at 1 min after injection and FIG. 10(B) is a graphical illustration of the amount of microemboli lodging in the vasculature of the kidneys and spleen at 15 min after injection.

ICAM-1 = target: T4, ICAM-1 (Mus musculus, UniProt P13597); experiment: Lung uptake (30 min) of radiolabeled ASM vs anti-ICAM carriers injected iv in mice; type: in vivo; conditions: 30 min after iv injection
T4 construct: from tissue
Method: (A) Lung uptake (30 min) of ^125I-labeled anti-transferrin receptor (targeted to the clathrin route), anti-GM1 (anti-ganglioside GM1, targeted to caveoli), or anti-ICAM, injected intravenously in mice as free antibodies or absorbed on the surface of 100 nm polystyrene particles (prototype carrier final size=180 nm). Particles had ^125I-labeled IgG as a tracer. Dashed line=control unspecific IgG carriers. (B) Lung uptake (30 min) of radiolabeled acid sphingomyelinase, a recombinant enzyme which binds to mannose 6 phosphate (M6P) receptor, vs anti-ICAM polystyrene carriers in control C57Bl/6 mice vs diseased ASMKO mice. Data is normalized per gram due to larger lung size in ASMKO mice. […] […]. […] (E) FITC-labeled anti-ICAM carriers of diverse geometry (anti-ICAM polystyrene spheres from 0.1 to 5 μm or 0.1×1×3 μm elliptical disks, and polymorphous anti-ICAM conjugates formed by biotin-streptavidin crosslinking were incubated with TNFα activated human umbilical vein endothelial cells (HUVEC) for 1 h at 37° C. The cells were then washed and fixed, cell surface-located carriers were differentially stained with a texas red-conjugated secondary antibody, and the samples were analyzed by fluorescence microscopy to quantify the percent of carriers internalized by the cells. Data are mean±standard error of the mean for n≧4 mice or ≧20 cells. *p<0.05, **p<0.005, ***p<0.001 by student's t test.

T3 sequence (P13597 28-537): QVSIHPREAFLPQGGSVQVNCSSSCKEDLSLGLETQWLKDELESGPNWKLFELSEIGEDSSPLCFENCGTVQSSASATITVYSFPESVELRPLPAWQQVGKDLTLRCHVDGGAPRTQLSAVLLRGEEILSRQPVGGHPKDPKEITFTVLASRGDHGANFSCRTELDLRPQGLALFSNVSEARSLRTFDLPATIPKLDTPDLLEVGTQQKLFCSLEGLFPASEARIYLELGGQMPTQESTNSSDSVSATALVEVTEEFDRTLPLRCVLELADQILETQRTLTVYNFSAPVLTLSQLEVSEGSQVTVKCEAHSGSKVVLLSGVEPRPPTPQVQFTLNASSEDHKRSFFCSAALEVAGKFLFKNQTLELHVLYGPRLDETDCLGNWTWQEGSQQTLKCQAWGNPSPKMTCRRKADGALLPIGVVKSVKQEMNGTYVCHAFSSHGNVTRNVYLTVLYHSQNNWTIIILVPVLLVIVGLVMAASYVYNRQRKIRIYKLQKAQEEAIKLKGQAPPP
T1 sequence (P05362 28-532): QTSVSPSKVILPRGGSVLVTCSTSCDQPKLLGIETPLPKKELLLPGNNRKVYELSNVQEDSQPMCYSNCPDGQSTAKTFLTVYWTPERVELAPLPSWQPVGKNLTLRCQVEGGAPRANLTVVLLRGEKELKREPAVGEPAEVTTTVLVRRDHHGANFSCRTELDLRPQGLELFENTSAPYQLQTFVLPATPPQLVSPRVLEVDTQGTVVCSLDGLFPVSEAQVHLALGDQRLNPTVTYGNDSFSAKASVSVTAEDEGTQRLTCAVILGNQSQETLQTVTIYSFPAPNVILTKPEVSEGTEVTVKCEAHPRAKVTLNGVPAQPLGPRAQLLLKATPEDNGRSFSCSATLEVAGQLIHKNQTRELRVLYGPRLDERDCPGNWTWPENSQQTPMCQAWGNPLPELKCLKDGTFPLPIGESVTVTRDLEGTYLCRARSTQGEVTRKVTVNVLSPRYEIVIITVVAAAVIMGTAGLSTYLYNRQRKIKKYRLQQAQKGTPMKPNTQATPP
T2 sequence (P05362 28-532): as above
T4 sequence (P13597 28-537): as the sequence (P13597 28-537) above

## N=C(N)NC(=O)c1nc(Cl)c(N)nc1N [amiloride, reference compound]
HUVEC; 3 mM amiloride or 0.1 μM PMA pre-treatment
  Effect of modulator on endocytic transport of peptide carriers: inhibited
Mouse endothelial cells; Mus musculus, Endothelial cell, phages A1, B7, B9, D6, 3 mM amiloride, read-out: Inhibition of phage internalization by amiloride
  inhibition at 3000 µM: 41 to 59%
Caco-2 cells
  Uptake of anti-ICAM carriers in presence of amiloride: 20 % of the control value
Caco-2 monolayers; 3 h
  Reduction of transport of 125I-anti-ICAM carriers by amiloride: about 50%

## O=C[C@@H](O)[C@@H](O)[C@H](O)[C@H](O)COP(=O)(O)O [mannose-6-phosphate, reference compound]
[1]
  Effect of excess free competitor in the media on targeting of γ3/ASM carriers to endothelial cells: did not compete

## FSPHSRT (phage display-derived peptide B9) [also tested as phage clone]
[2]
  Inhibition of binding of anti-ICAM nanocarriers to human endothelial cells: ~80 % inhibition
ICAM-1 on HUVEC
  Leukocyte transmigration across endothelial cells: inhibit leukocyte transmigration

## GCKLCAQ (phage display-derived peptide D6) [also tested as phage clone]
ICAM-1 on HUVEC
  Leukocyte transmigration across endothelial cells: inhibit leukocyte transmigration

## GSLLSAA [B8, GSLLSAA]
Mouse endothelial cells
  Internalization of phage viruses by endothelial cells: not
[2]
  Inhibition of binding of anti-ICAM nanocarriers to human endothelial cells: at some extent
ICAM-1 on HUVEC
  Leukocyte transmigration across endothelial cells: inhibit leukocyte transmigration

## NNQKIVNIKEKVAQIEA (fibrinogen-derived 2-gamma-3) [2γ3]
HUVEC
  Binding, internalization and lysosomal transport of carriers: similar

## NNQKIVNLKEKVAQLEA (fibrinogen-derived gamma-3) [γ3]
[1]
  Effect of excess free competitor in the media on targeting of γ3/ASM carriers to endothelial cells: suppressed
[3]; 1 min after microemboli injection
  Fibrin microemboli in circulation: remain in circulation
[3]; kidneys and spleen, 15 min after injection
  Microemboli lodging in organs: attenuating microemboli lodging in organs

## NNQKLVNIKEKVAQIEA (fibrinogen-derived 3-gamma-3) [3γ3]
HUVEC
  Binding, internalization and lysosomal transport of carriers: similar

## YPFLPTA (phage display-derived peptide B10) [also tested as phage clone]
Mouse endothelial cells
  Internalization of phage viruses by endothelial cells: not
ICAM-1 on HUVEC
  Leukocyte transmigration across endothelial cells: inhibit leukocyte transmigration

## YQATPLP (phage display-derived peptide B7) [also tested as phage clone]
ICAM-1 on HUVEC
  Leukocyte transmigration across endothelial cells: inhibit leukocyte transmigration

## ^125I-albumin: radiolabelled bovine serum albumin, standard for passive transport
Caco-2 monolayers; Caco-2
  Papp A→B: 0.03 ± 20000 ×10⁻⁶ cm/s

B1: free ASM: recombinant acid sphingomyelinase, an enzyme that binds to mannose-6-phosphate receptor (protein, UniProt P17405 47-631, looked up)
Sphingomyelin …: LALSDSRVLWAPAEAHPLSPQGHPARLHRIVPRLRDVFGWGNLTCPICKGLFTAINLGLKKEPNVARVGSVAIKLCNLLKIAPPAVCQSIVHLFEDDMVEVWRRSVLSPSEACGLLLGSTCGHWDIFSSWNISLPTVPKPPPKPPSPPAPGAPVSRILFLTDLHWDHDYLEGTDPDCADPLCCRRGSGLPPASRPGAGYWGEYSKCDLPLRTLESLLSGLGPAGPFDMVYWTGDIPAHDVWHQTRQDQLRALTTVTALVRKFLGPVPVYPAVGNHESTPVNSFPPPFIEGNHSSRWLYEAMAKAWEPWLPAEALRTLRIGGFYALSPYPGLRLISLNMNFCSRENFWLLINSTDPAGQLQWLVGELQAAEDRGDKVHIIGHIPPGHCLKSWSWNYYRIVARYENTLAAQFFGHTHVDEFEVFYDEETLSRPLAVAFLAPSATTYIGLNPGYRVYQIDGNYSGSSHVVLDHETYILNLTQANIPGAIPHWQLLYRARETYGLPNTLPTAWHNLVYRMRGDMQLFQTFWFLYHKGHPPSEPCGTPCRLATLCAQLSARADSPALCRHLMPDGSLPEAQSLWPRPLFC
ICAM-1
  Lung accumulation, fold lower than ICAM-1 targeting: 10 fold

Reference: patent US9358305B2, “Targeted carriers for drug delivery across the gastrointestinal epithelium” (University of Maryland, College Park, priority 2009, dated 2016)
